Data taken from US11883410B2, “Preventative and therapeutic agents for sarcopenia” (NATIONAL UNIVERSITY CORPORATION TOKYO UNIVERSITY OF …, priority 2018, dated 2024).
Where two headings read alike, the source gives them in different places.

How the values were obtained:
Format in all cases: in vivo
[1] = system: tail-suspended mice (disuse muscle atrophy of lower limbs); test: Evaluation of inhibition of muscular atrophy in tail-suspended mice, Part 2; conditions: feed containing 0.01 mass % for 2 weeks during tail-suspension; vs control tail-suspension group
Description: (§1) Eight-week-old C57/BL6J male mice (Japan SLC, Inc., Shizuoka, Japan) were subjected to the tail-suspension to obtain mice model with disuse muscle atrophy of their lower limbs.
While the tail-suspension was performed, feed containing 0.01 mass % compound (1), compound (2), compound (3), compound (4), or compound (5) was fed for 2 weeks (compound (1) administration group, compound (2) administration group, compound (3) administration group, compound (4) administration group, and compound (5) administration group). […] The number of tests was n=8 in each group.
(§2) Two weeks after the initiation of the experiment (the initiation of the tail-suspension and the initiation of feeding with the feed that contained the compounds), micro-CT imaging of the mouse hind limbs was performed. The muscle volume at the periphery of the tibia (triceps surae muscle) was measured using 3D volumetric analysis software. Micro-CT imaging was performed using a microfocus X-ray CT system (micro-CT: SMX-90T, manufactured by Shimadzu Corporation).
The midpoint of the fibula in the lower limb of each mouse was determined using 3D images created from the micro-CT images, and the volume of total muscle mass at the measurement area starting from the midpoint was measured. […] The rate of increase was calculated according to the following: (compound administration group−control tail-suspension group)/(normal breeding group−control tail-suspension group)×100.
Furthermore, the gastrocnemius muscle was collected from the mouse hind limb after the tail-suspension, and the wet mass (muscle mass) was measured. […] The rate of increase was calculated according to the following: (compound administration group−control tail-suspension group)/(normal breeding group−control tail-suspension group)×100.
(§3) A Student's t-test was used for the significant difference test.

[2] = system: tail-suspended mice (disuse muscle atrophy of lower limbs); test: Inhibition of muscular atrophy in tail-suspended mice, Part 3 (feeding started one week after tail-suspension); conditions: feed containing 0.3 mass % for 2 weeks starting one week after tail-suspension; vs control tail-suspension group
Description: as §1
One week after tail-suspension, feed that contained 0.3 mass % compound (1) was fed for 2 weeks (compound (1) administration group). […] The number of tests was n=8 in each group.
Micro-CT imaging of the mouse hind limbs was performed before tail suspension, 1 week after suspension, 2 weeks after suspension, and 3 weeks after suspension. The muscle volume at the periphery of the tibia (triceps surae muscle) was measured using 3D volumetric analysis software. Micro-CT imaging was performed using a microfocus X-ray CT system (micro-CT: SMX-90T, manufactured by Shimadzu Corporation).
The midpoint of the fibula in the lower limb of each mouse was determined using 3D images created from the micro-CT images, and the volume of total muscle mass at the measurement area starting from the midpoint was measured.
Furthermore, the gastrocnemius muscle was collected from the mouse hind limb three weeks after the tail-suspension, and the wet mass (muscle mass) was measured.
as §3

[3] = Evaluation of blood kinetics of compound in mice (mixed feed); conditions: for Cmax / AUC(0-t): male, mouse, po, C57BL/6 mice, plasma, LC/MS; for AUC(0-t): read-out: AUC0-24 h
Description: Mixed feed that contained 0.01, 0.1, or 0.3 mass % compound (1) were fed to 7-week-old C57BL/6 mice (male, Charles River Japan Ltd., weight: 20.7-23.7 g) for 13 days.
Blood was collected from the face by using an animal lancet at 10 a.m., 1, 5, and 9 p.m. on day 12 and 10 a.m. on day 13.
About 75 μL of blood was collected into a heparin-coated hematocrit tube. The concentration of the compound in the plasma after centrifugation was measured using liquid chromatography-mass spectrometry (LC/MS).
Since a mouse with a body weight of about 20 g consumes about 4 g of the feed per day (spilling of food is not assumed), the daily intake of the compound is estimated to be 0.4 mg (0.01 mass % mixed feed), 4 mg (0.1 mass % mixed feed), or 12 mg (0.3 mass % mixed feed). The body weight conversion values were 20 mg/kg (0.01 mass % mixed feed), 200 mg/kg (0.1 mass % mixed feed), and 600 mg/kg (0.3 mass % mixed feed).

[4] = system: tail-suspended mice (disuse muscle atrophy of lower limbs); test: Evaluation of inhibition of muscular atrophy in tail-suspended mice, Part 1; conditions: feed containing 0.01, 0.1 or 0.3 mass % for 2 weeks during tail-suspension; vs control tail-suspension group
Description: Eight-week-old C57/BL6J male mice (Japan SLC, Inc., Shizuoka, Japan) were subjected to tail-suspension to obtain mice model with disuse muscle atrophy of their lower limbs.
The tail-suspension was performed according to the description in Skelet Muscle. 2015; 5:34. […] Tail-suspension is known to cause skeletal muscle mass loss and muscle strength loss in the hind limbs, whereby an experimental model with disuse muscle atrophy, which is one type of sarcopenia, can be produced.
During the period of tail-suspension, feed containing 0.01, 0.1, or 0.3 mass % compound (1) was fed for 2 weeks (compound (1) administration groups). […] The number of tests was n=8 in each group.
as §2, with “feeding of” for “feeding with”, “the compound),” for “the compounds),”, “micro-CT (micro-computed tomography)” for “micro-CT”, “(micro-CT: SMX-90T” for “(micro-CT: SMX-90T,”
The midpoint of the fibula in the lower limb of each mouse was determined using 3D images created from the micro-CT images, and the volume of total muscle mass at the measurement area starting from the midpoint was measured. […]

[5] = 20 mg/kg, 0.01% mixed feed for 13 days
[6] = 200 mg/kg, 0.1% mixed feed for 13 days
[7] = 600 mg/kg, 0.3% mixed feed for 13 days

SMILES	muscle volume at the periphery of the tibia (triceps surae muscle), micro-CT (FIG. 6, FIG. 7) [1]	wet mass (muscle mass) of gastrocnemius muscle (FIG. 8, FIG. 9) [1]	muscle volume change at the periphery of the tibia (triceps surae muscle), micro-CT (FIG. 11) [2]	wet mass (muscle mass) of gastrocnemius muscle three weeks after tail-suspension (FIG. 12) [2]	Cmax [3, 5] [nM]	AUC(0-t) [3, 5] [µM·h]	Cmax [3, 6] [nM]	AUC(0-t) [3, 6] [µM·h]	Cmax [3, 7] [nM]	AUC(0-t) [3, 7] [µM·h]	compound concentration in blood ([3]; mixed feed in the range of 0.01 mass % to 0.3 mass %)	muscle volume at the periphery of the tibia (triceps surae muscle), micro-CT (FIG. 2) [4]	wet mass (muscle mass) of gastrocnemius, soleus, tibialis anterior and extensor digitorum longus muscles (FIG. 3) [4]
Cn1cccc1C(=O)N1CCN(C(=O)Nc2ccc(N3CCC(C(=O)N4CCOCC4)CC3)cc2)CC1 [compound (1), 4-{(1-methyl-1H-pyrrol-2-yl)carbonyl}-N-[4-{4-(4-morpholinylcarbonyl)-1-piperidinyl}phenyl]-1-piperazine carboxamide]	significant suppression of muscle mass loss	significant suppression of the decrease in the muscle amount	significantly higher muscle amount at week 2 and week 3	significant therapeutic effect on the muscle amount	230	4.29	2210	38.3	6410	104	dose-dependent increase in the compound concentration in blood	significant suppression of muscle mass loss	a tendency to suppress a decrease in the muscle amount in all of the hind limb muscles
c1ccc(C(OC2CCN(CCCc3nnn[nH]3)CC2)c2ccccc2)cc1 [compound (2), 4-(diphenylmethoxy)-1-[3-(2H-tetrazol-5-yl)propyl]piperidine]	did not show significant suppression of muscle mass loss although a tendency toward suppression was observed	did not show a significant difference although a tendency toward suppression of the decrease in the muscle amount was observed											
O=C(Nc1ccc(N2CCC(CCn3cncn3)C2)cc1)N1CCC(=Cc2ccccn2)CC1 (stereo not shown) [compound (4), N-(4-(3-(2-(1H-1,2,4-triazol-1-yl)ethyl)pyrrolidin-1-yl)phenyl)-4-(pyridin-2-ylmethylene)piperidine-1-carboxamide]	significant suppression of muscle mass loss	significant suppression of the decrease in the muscle amount											
Cn1cccc1C(=O)N1CCN(C(=O)NC2CCN(c3ccc(CCn4ccnn4)cc3)CC2)CC1 [compound (5), 4-((1-methylpyrrol-2-yl)-carbonyl)-N-(1-(4-(2-(1H-1,2,3-triazol-1-yl)-ethyl)-phenyl)-piperidin-4-yl)-1-piperazine carboxamide]	significant suppression of muscle mass loss	significant suppression of the decrease in the muscle amount											
